Measurements taken from patent publication US20160177395A1, “BIOMARKERS FOR THE PREDICTION OF RENAL INJURY” (priority 2007, published 2016).
Values joined by “and” are separate entries in the source; they are usually repeats but may differ in a detail not shown here. Identical values can stand only once.

Tested on: kidney tissues of treated or untreated rats
Test: Real-time qRT-PCR of marker transcripts in kidney tissue panel, discovery stage (Table 22)
Format: in vivo, rat
Conditions: listed as Dox; for normalized Real Time PCR MMU09507_DB81_seg15: kidney; for H33998_DB71_seg19 normalized Real Time PCR / MUSCYCG1R_DB81_seg15-17 normalized Real Time PCR / RATLRFI_DB71_seg9 normalized Real Time PCR / RATRAB13X_DB71_seg11-13 normalized Real Time PCR / RNU24174_DB71_seg8 normalized Real Time PCR / W41270_DB81_seg11 normalized Real Time PCR / W64472_DB81_seg2 normalized Real Time PCR / W83813_DB81_seg27 normalized Real Time PCR / AA686189_DB71_seg6 normalized Real Time PCR expression / AI045075_DB71_seg6 normalized Real Time PCR expression / AI454051_DB71_seg0 normalized Real Time PCR expression / H31045_DB71_seg5 normalized Real Time PCR expression: rat kidney
Description: Before RT preparation the RNA was treated with DNA-free (Ambion, cat. No. AM1906) DNase treatment and removal—according to manufacturer protocol. DNase procedure was repeated until no DNA is detected in a PCR reaction using the RNA samples.
The mixture is then incubated for 5 min at 65° C. and then quickly chilled on ice. Thereafter, 20 μl of 5× SuperscriptII first strand buffer (Invitrogen, Cat. No. Y00146), 9.6 μl 0.1M DTT (Invitrogen, Cat. No. Y00147) and 160 units RNasin (Promega, Cat. No. N251A) are added, and the mixture is incubated for 10 min at 25° C., followed by further incubation at 42° C. for 2 min. […] The resulting cDNA is diluted 1:20 in TE buffer (10 mM Tris pH=8, 1 mM EDTA pH=8).
cDNA (5 μl), prepared as described above, is used as a template in Real-Time PCR reactions using the SYBR Green I assay (PE Applied Biosystem) with specific primers in 100 nM concentration if not indicated otherwise and UNG Enzyme (Eurogentech or equal) Amplification is effected as follows: 50° C. for 2 min, 95° C. for 10 min, and then 40 cycles of 95° C. for 15 sec, followed by 60° C. for 1 min (if not indicated otherwise). Amplification step is followed by dissociation step. Detection is performed by using the PE Applied Biosystem SDS 7000. The cycle in which the reactions achieved a threshold level (Ct) of fluorescence is registered and is used to calculate the relative transcript quantity in the RT reactions. Non-detected samples are assigned Ct value of 41 and are calculated accordingly. The relative quantity is calculated using the equation Q=efficiencŷ-Ct. The efficiency of the PCR reaction is calculated from a standard curve, created by using serial dilutions of several reverse transcription (RT) reactions. To minimize inherent differences in the RT reaction, the resulting relative quantities are normalized to normalization factor calculated as follows: […]
The relative quantity (Q) of each housekeeping gene in each sample is calculated as described above. In order to calculate the “relative Q relative to MED” each Q for each HSKP gene is divided by the median quantity of this gene in all panel samples. To finally achieve the normalization factor of each sample the geometric mean of all four “relative Q relative to MED” was calculated. The normalization factor was then used for further calculations.
The markers of the present invention were tested with regard to their expression in a panel of kidney tissues samples from treated and control rats. Unless otherwise noted, all experimental data relates to the novel polynucleotides and proteins of the present invention, named according to the segment being tested (as expression was tested through RT-PCR as described). Tests were then performed as described in the “Materials and Experimental Procedures” section above.
The qRT-PCR measurements were normalized according to each samples normalization factor as described in “RT Preparation and Real-Time qRT-PCR Analysis” and further multiplied by a constant factor for ease of viewing.

[1] = day1, individual animals (F and M)
[2] = day5, individual animals (F and M)
[3] = day28, individual animals (F and M)

COc1cccc2c1C(=O)c1c(O)c3c(c(O)c1C2=O)C[C@@](O)(C(=O)CO)C[C@@H]3O[C@H]1C[C@H](N)[C@H](O)[C@H](C)O1 [Doxorubicin]
normalized Real Time PCR MMU09507_DB81_seg15 (female rats, day1): 0.48 and 0.52 and 0.93
normalized Real Time PCR MMU09507_DB81_seg15 (female rats, day5): 2.07 and 1.46 and 1.82
normalized Real Time PCR MMU09507_DB81_seg15 (female rats, day28): 4.47 and 2.99 and 2.89
normalized Real Time PCR MMU09507_DB81_seg15 (male rats, day1): 0.74 and 0.71 and 0.59
normalized Real Time PCR MMU09507_DB81_seg15 (male rats, day5): 1.74 and 1.67
normalized Real Time PCR MMU09507_DB81_seg15 (male rats, day28): 3.04 and 2.93 and 2.13
H33998_DB71_seg19 normalized Real Time PCR [1]: 1.25 and 1.34 and 2.14 and 0.97 and 1.07 and 2.75
MUSCYCG1R_DB81_seg15-17 normalized Real Time PCR [1]: 1.66 and 1.12 and 1.36 and 0.56 and 0.64 and 0.66
RATLRFI_DB71_seg9 normalized Real Time PCR [1]: 0.25 and 0.21 and 0.31 and 0.46 and 0.48 and 0.24
RATRAB13X_DB71_seg11-13 normalized Real Time PCR [1]: 1.1 and 0.9 and 1 and 0.88 and 1.09 and 0.86
RNU24174_DB71_seg8 normalized Real Time PCR [1]: 0.29 and 0.35 and 0.31 and 0.48 and 0.49 and 0.36
W41270_DB81_seg11 normalized Real Time PCR [1]: 2.24 and 1.2 and 1.56 and 1.74 and 0.95 and 0.91
W64472_DB81_seg2 normalized Real Time PCR [1]: 1.58 and 1.09 and 1.15 and 0.86 and 0.77 and 0.56
W83813_DB81_seg27 normalized Real Time PCR [1]: 2.9 and 1.56 and 2 and 0.68 and 0.78 and 0.64
AA686189_DB71_seg6 normalized Real Time PCR expression (day1, individual animals): 0.59 and 0.49 and 0.39 and 0.78 and 0.4 and 0.26
AI045075_DB71_seg6 normalized Real Time PCR expression (day1, individual animals): 1.12 and 1.21 and 0.78 and 0.61 and 0.64 and 3.12
AI454051_DB71_seg0 normalized Real Time PCR expression (day1, individual animals): 1.2 and 1.05 and 1.54 and 0.8 (2×) and 1.03
H31045_DB71_seg5 normalized Real Time PCR expression (day1, individual animals): 1.15 and 0.3 and 1.95 and 0.23 and 0.32 and 0.75
H33998_DB71_seg19 normalized Real Time PCR [2]: 2.39 and 1.29 and 3.68 and 1.19 and 1.37
MUSCYCG1R_DB81_seg15-17 normalized Real Time PCR [2]: 1.51 and 1.97 and 3.17 and 1.65 and 2
RATLRFI_DB71_seg9 normalized Real Time PCR [2]: 0.46 and 0.29 and 0.18 and 0.47 and 0.25
RATRAB13X_DB71_seg11-13 normalized Real Time PCR [2]: 1.17 and 1.16 and 0.94 and 0.7 and 0.83
RNU24174_DB71_seg8 normalized Real Time PCR [2]: 0.83 and 0.59 and 0.63 and 1.08 and 0.87
W41270_DB81_seg11 normalized Real Time PCR [2]: 1.71 and 1.37 and 2.13 and 1.64 and 1.35
W64472_DB81_seg2 normalized Real Time PCR [2]: 1.97 and 1.36 and 2.36 and 3 and 2.54
W83813_DB81_seg27 normalized Real Time PCR [2]: 2.28 and 1.99 and 2.9 and 1.3 and 1.41
AA686189_DB71_seg6 normalized Real Time PCR expression (day5, individual animals): 1.2 and 0.6 and 0.51 and 0.48 and 0.38
AI045075_DB71_seg6 normalized Real Time PCR expression (day5, individual animals): 0.93 (2×) and 2.05 and 0.76 and 0.57
AI454051_DB71_seg0 normalized Real Time PCR expression (day5, individual animals): 1.17 and 1.35 and 1.44 and 0.3 and 0.95
H31045_DB71_seg5 normalized Real Time PCR expression (day5, individual animals): 1.86 and 1.19 and 0.52 and 0.35 and 1.41
H33998_DB71_seg19 normalized Real Time PCR [3]: 0.48 and 0.58 and 0.96 and 0.64 and 0.44 and 0.54
MUSCYCG1R_DB81_seg15-17 normalized Real Time PCR [3]: 1.07 and 1.52 and 1.26 and 0.99 and 0.98 and 1.28
RATLRFI_DB71_seg9 normalized Real Time PCR [3]: 0.72 and 0.4 and 1.47 and 8.34 and 0.53 and 1.08
